In patent US9364492B2, “Method for glycosylation of flavonoid compounds” (SUNTORY HOLDINGS LIMITED, priority 2007, dated 2016):

Legend:
[1] = Heat stability of glycoside; assay type: physicochemical; conditions: 100 μM in 10 mM potassium phosphate buffer pH 7.0, 4° C. to 100° C., 0 to 4 hours
Procedure: After 10 mM potassium phosphate buffer (pH 7.0, 30 μl) containing 100 μM (+)-catechin or 4′-O-α-D-glucopyranosyl-(+)—catechin obtained in Example 4 was treated at different temperatures ranging from 4° C. to 100° C. for 0 to 4 hours, each sample was transferred on ice and mixed with 0.1% TFA (60 μl), followed by HPLC analysis in the same manner as shown in Example 1.

Cellulase “Onozuka” RS [2] = assay: Glycosyl donor selectivity 2: (+)-catechin, Cellulase “Onozuka” RS and each glycosyl donor, HPLC; assay type: biochemical, Trichoderma viride; conditions: substance as glycosyl donor (10 mg); (+)-catechin 3 mg; 50° C., 1 day, pH 5
Procedure: (+)-Catechin (3 mg) was mixed with Cellulase “Onozuka” RS (10 mg), each glycosyl donor (10 mg) and 0.1 M acetate buffer (100 μl, pH 5), followed by stirring at 50° C. for 1 day. The glycosyl donors used were maltose, maltotriose, maltotetraose, maltopentaose, maltohexaose, maltoheptaose and dextrin (Nacalai Tesque, Inc., Japan), as well as γ-cyclodextrin (Wako Pure Chemical Industries, Ltd., Japan). After the reaction, the centrifuged supernatant was diluted 10-fold and analyzed by HPLC.

TRa2 [3] = assay: Glycosidase activity of TRa2 on sugars, TLC; assay type: biochemical, Trichoderma viride; conditions: 0.5% sugar, 20 mM acetate buffer pH 5.0, 50° C., 1 hour
Procedure: The culture supernatant (500 μl) was concentrated about 5-fold using Microcon YM-30 (Amicon). The above concentrate (10 μl) was added to 100 μl of 20 mM acetate buffer (pH 5.0) containing 0.5% maltose, maltotriose, maltotetraose, dextrin, α-cyclodextrin, β-cyclodextrin or γ-cyclodextrin, and reacted at 50° C. for 1 hour.
After completion of the reaction, each sample was analyzed by TLC as follows. The plate used was a silica gel G-60 plate (Merck & Co., Inc.), and the developing solution used was 2-propanol:acetone:0.5 M lactic acid=2:2:1. For detection, the plate was sprayed with sulfuric acid:ethanol=1:9, air-dried and then heated on a hot plate. As a result, none of the sugars was degraded in a culture solution of the control strain (strain C-1) transformed with vector pYE22m.

TRa2 [4] = assay: Substrate specificity: glycosylation of acceptor compounds with dextrin by crude TRa2 enzyme solution, HPLC; assay type: biochemical, Trichoderma viride; conditions: 0.5 mM or 10 mM glycosyl acceptor compound, 10 mg dextrin, pH 5.2, 45° C., 24 hr
Procedure: The strain TRa2-1 was cultured overnight at 30° C. with shaking in 10 ml YPD medium. After reaching the resting phase, the culture solution was inoculated into the same medium (2% (v/v)) and cultured with shaking at 30° C. for 3 days. After culturing, the supernatant was collected by centrifugation and concentrated 5-fold to give a crude enzyme solution of TRa2. The reaction was performed at 45° C. for 24 hr in 100 μl enzyme reaction solution containing 0.5 mM or 10 mM glycosyl acceptor compound ((+)-catechin, (−)-epigallocatechin-3-O-gallate, esculetin, naringenin, quercetin, daidzein, genistein or kaempferol), 10 mg dextrin, 100 mM acetate buffer (pH 5.2) and the crude enzyme solution, followed by HPLC analysis.

[5] = Solubility of glycoside in water; assay type: physicochemical
Procedure: (+)-Catechin or 5-O-α-D-glucopyranosyl-(+)-catechin obtained in Example 3 was added to water at different concentrations ranging from 10 to 450 mg/ml and dissolved by vigorous stirring, followed by centrifugation to remove precipitates. The supernatant was analyzed by HPLC to quantify the amounts of (+)-catechin and 5-O-α-D-glucopyranosyl-(+)-catechin. The same procedure was also repeated to study the solubility of (−)-epigallocatechin-3-β-gallate or 5-O-α-D-glucopyranosyl-(−)-epigallocatechin-3-O-gallate.

Cellulase “Onozuka” RS [6] = assay: Glycosyl donor selectivity 1: (+)-catechin, Cellulase “Onozuka” RS and each glycosyl donor, HPLC; assay type: biochemical, Trichoderma viride; conditions: substance as glycosyl donor (20 mg); (+)-catechin 6 mg; 50° C., 1 day, pH 5
Procedure: (+)-Catechin (6 mg) was mixed with Cellulase “Onozuka” RS (20 mg), each glycosyl donor (20 mg) and 0.1 M acetate buffer (200 μl, pH 5), followed by stirring at 50° C. for 1 day. After the reaction, the centrifuged supernatant was diluted 10-fold and analyzed by HPLC. The glycosyl donors used were cellobiose (Sigma), dextran (Sigma), maltose (Nacalai Tesque, Inc., Japan), carboxymethylcellulose sodium (Nacalai Tesque, Inc., Japan), soluble starch (Nacalai Tesque, Inc., Japan), dextrin (Nacalai Tesque, Inc., Japan), isomaltooligosaccharide (Wako Pure Chemical Industries, Ltd., Japan), α-cyclodextrin (Wako Pure Chemical Industries, Ltd., Japan), γ-cyclodextrin (Wako Pure Chemical Industries, Ltd., Japan) and trehalose dihydrate (Nacalai Tesque, Inc., Japan).

Compound | Product (% area) 5-Glc (Cellulase “Onozuka” RS [2]) [% area] | Product (% area) 7-Glc (Cellulase “Onozuka” RS [2]) [% area] | degradation of sugar in culture solution of strain TRa2-1 (TRa2 [3]) | area ratio (%) between acceptor compound and glycoside product (TRa2 [4]) [%] | further results
OC[C@H]1O[C@H](Oc2ccc([C@H]3Oc4cc(O)cc(O)c4C[C@@H]3O)cc2O)[C@H](O)[C@@H](O)[C@@H]1O [4′-O-α-D-glucopyranosyl-(+)-catechin] |  |  |  |  | heat stability (% remaining) [1]: more stable against heat than catechin
maltotriose | 2.54 | 0.51 | degraded |  | 
OC[C@H]1O[C@H](O[C@H]2[C@H](O)[C@@H](O)[C@@H](O[C@H]3[C@H](O)[C@@H](O)[C@@H](O[C@H]4[C@H](O)[C@@H](O)C(O)O[C@@H]4CO)O[C@@H]3CO)O[C@@H]2CO)[C@H](O)[C@@H](O)[C@@H]1O (some centres unmarked) [Maltotetraose, maltotetraose] | 7.15 | 1.60 | degraded |  | 
OC[C@H]1O[C@H](O[C@H]2[C@H](O)[C@@H](O)C(O)O[C@@H]2CO)[C@H](O)[C@@H](O)[C@@H]1O (mixture of isomers) [Maltose, maltose] |  |  | no degradation |  | 
O=c1c(-c2ccc(O)cc2)coc2cc(O)cc(O)c12 [genistein] |  |  |  | 6.8 | 
OC[C@H]1O[C@@H]2O[C@H]3[C@H](O)[C@@H](O)[C@@H](O[C@H]4[C@H](O)[C@@H](O)[C@@H](O[C@H]5[C@H](O)[C@@H](O)[C@@H](O[C@H]6[C@H](O)[C@@H](O)[C@@H](O[C@H]7[C@H](O)[C@@H](O)[C@@H](O[C@H]8[C@H](O)[C@@H](O)[C@@H](O[C@H]1[C@H](O)[C@H]2O)O[C@@H]8CO)O[C@@H]7CO)O[C@@H]6CO)O[C@@H]5CO)O[C@@H]4CO)O[C@@H]3CO [β-cyclodextrin] |  |  | no degradation |  | 
OC[C@H]1O[C@H](Oc2cc(O)cc3c2C[C@H](O)[C@@H](c2ccc(O)c(O)c2)O3)[C@H](O)[C@@H](O)[C@@H]1O [5-O-α-D-glucopyranosyl-(+)-catechin] |  |  |  |  | solubility relative to (+)-catechin [5]: at least 40 fold
O=c1c(O)c(-c2ccc(O)c(O)c2)oc2cc(O)cc(O)c12 [quercetin] |  |  |  | 9.4 | 
O=c1c(-c2ccc(O)cc2)coc2cc(O)ccc12 [daidzein] |  |  |  | 10.7 | 
maltoheptaose | 7.39 | 1.97 |  |  | 
O=c1ccc2cc(O)c(O)cc2o1 [esculetin] |  |  |  | 3.5 | 
OC[C@H]1O[C@@H]2O[C@H]3[C@H](O)[C@@H](O)[C@@H](O[C@H]4[C@H](O)[C@@H](O)[C@@H](O[C@H]5[C@H](O)[C@@H](O)[C@@H](O[C@H]6[C@H](O)[C@@H](O)[C@@H](O[C@H]7[C@H](O)[C@@H](O)[C@@H](O[C@H]8[C@H](O)[C@@H](O)[C@@H](O[C@H]9[C@H](O)[C@@H](O)[C@@H](O[C@H]1[C@H](O)[C@H]2O)O[C@@H]9CO)O[C@@H]8CO)O[C@@H]7CO)O[C@@H]6CO)O[C@@H]5CO)O[C@@H]4CO)O[C@@H]3CO [γ-Cyclodextrin, γ-cyclodextrin] | 14.53 | 4.73 | degraded |  | Product (% area) 5-Glc (Cellulase “Onozuka” RS [6]): 14.69 % area; Product (% area) 7-Glc (Cellulase “Onozuka” RS [6]): 5.91 % area
O=C(O[C@@H]1Cc2c(O[C@H]3O[C@H](CO)[C@@H](O)[C@H](O)[C@H]3O)cc(O)cc2O[C@@H]1c1cc(O)c(O)c(O)c1)c1cc(O)c(O)c(O)c1 [5-O-α-D-glucopyranosyl-(−)-epigallocatechin-3-O-gallate] |  |  |  |  | solubility compared to (−)-epigallocatechin-3-O-gallate ([5]; water): significantly increased solubility
OC[C@H]1O[C@@H]2O[C@H]3[C@H](O)[C@@H](O)[C@@H](O[C@H]4[C@H](O)[C@@H](O)[C@@H](O[C@H]5[C@H](O)[C@@H](O)[C@@H](O[C@H]6[C@H](O)[C@@H](O)[C@@H](O[C@H]7[C@H](O)[C@@H](O)[C@@H](O[C@H]1[C@H](O)[C@H]2O)O[C@@H]7CO)O[C@@H]6CO)O[C@@H]5CO)O[C@@H]4CO)O[C@@H]3CO [α-Cyclodextrin, α-cyclodextrin] |  |  | no degradation |  | 
O=c1c(O)c(-c2ccc(O)cc2)oc2cc(O)cc(O)c12 [kaempferol] |  |  |  | 3.1 | 
maltopentaose | 7.87 | 1.98 |  |  | 
maltohexaose | 7.89 | 2.06 |  |  | 
Oc1cc(O)c2c(c1)O[C@H](c1ccc(O)c(O)c1)[C@@H](O)C2 [(+)-catechin] |  |  |  | 10 | water solubility [5]: substantially insoluble in water
O=C1C[C@@H](c2ccc(O)cc2)Oc2cc(O)cc(O)c21 [naringenin] |  |  |  | 4.4 | 
(−)-epigallocatechin-3-O-gallate |  |  |  | 17.7 | 
